{
  "source": "patent US10494333B2",
  "about": "“Compound having BLT inhibitory activity and composition, for preventing or treating inflammatory diseases, comprising same as active ingredient” (DONGGUK UNIVERSITY INDUSTRY-ACADEMIC COOPERATION FOUNDATION, priority 2015, dated 2019)",
  "key": {"[1]": {"target": "T1, BLT1 (Homo sapiens, UniProt Q15722)", "T1 construct": "expressed in transfected cells; host or cells: CHO cells (CHO-BLT1)", "T1 sequence (Q15722 whole entry, species assumed)": "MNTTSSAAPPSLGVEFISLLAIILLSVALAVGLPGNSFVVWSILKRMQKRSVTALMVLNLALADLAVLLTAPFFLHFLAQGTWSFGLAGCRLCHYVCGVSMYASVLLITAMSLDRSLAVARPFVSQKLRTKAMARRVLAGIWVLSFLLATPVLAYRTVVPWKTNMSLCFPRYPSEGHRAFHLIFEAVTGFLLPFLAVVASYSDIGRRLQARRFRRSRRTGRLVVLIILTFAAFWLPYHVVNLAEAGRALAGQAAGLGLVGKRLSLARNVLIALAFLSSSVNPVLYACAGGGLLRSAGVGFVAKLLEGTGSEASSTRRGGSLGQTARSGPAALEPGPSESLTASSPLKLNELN", "assay": "LTB4-induced chemotactic motility of BLT1-expressing cells (Transwell)", "format": "cell-based", "conditions": "CHO-BLT1 cells, LTB4 10 nM", "description": "(§1) Chemotactic motility was analyzed using a Transwell chamber including a polycarbonate filter (8-μm pore size, Corning Costar) with a 6.5-mm diameter. Specifically, the lower surface of the filter was coated with 10 μg/mL fibronectin in a serum-free RPMI 1640 medium at 37° C. for 1 hour. The experiment was performed by placing the filter dried and coated with RPMI 1640 media containing various amounts of LTB4 in the lower wells of the Transwell chamber, and loading CHO cells, which stably express both BLT1 and BLT2, into the upper wells containing serum-free RPMI 1640 media finally at 2×10^4 cells/100 μL. To evaluate the effect of inhibitors, the cells were pre-treated with each inhibitor for 30 minutes before dispensing. After the cells were cultured at 37° C. in 5% CO2 for 3 hours, the filters were fixed with methanol for 3 minutes, and stained with hematoxylin and eosin for 10 minutes. […] The chemotactic motility was quantitatively analyzed by counting the cells on the lower side of the filter under an optical microscope (magnification, 200×). For each analysis, 6 fields were subjected to counting, each sample was analyzed twice, and the analysis was repeated three times."}, "[2]": {"test_system": "asthma-induced mice", "assay": "Airway hyperresponsiveness (AHR) in OVA asthma-induced mice", "format": "in vivo", "description": "(§2) Mast cells play a pivotal role in the initial reaction to asthma, and when an allergen enters the body from the outside through an airway, the mast cells are activated, thereby secreting various cytokines (interleukin-4 and interleukin-13). Due to the cytokines, the influx of inflammatory cells, and the generation of mucus and the airway contraction occur. The inventors used 7-week-old (18 to 20 g) female BALB/c mice provided by Orient (Seoungnam, Korea) for the experiment to confirm the anti-asthma effect, and asthma was induced in the mice. On day 1 and day 14, 2.5 mg of an adjuvant aluminum hydroxide gel (alum; Pierce, Rockford, Ill.) containing a […] of ovalbumin (OVA) was injected intraperitoneally to sensitize the female […] mice. After the two initial sensitizations, on day 21, day 22 and day 23, 1% OVA was sprayed into the mice using an ultrasonic nebulizer. […] After the initial sensitizations, on day 24, AHR was detected, and on day 25, the mice were dissected to observe asthma phenotypes such as the expression of an inflammatory cytokine IL-4, and the influx of the inflammatory cells (neutrophils). In addition, the AHR detection was performed after an airway constrictor methacholine (6.25 to 50 mg/ml depending on conditions) was administered to the mice. The administration of the airway constrictor was performed by spraying through an inlet of the chamber using an ultrasonic nebulizer for 3 minutes. The AHR was analyzed using an enhanced pause as the indicator of the asthma phenomenon."}, "[3]": {"test_system": "BLT2-expressing cells (CHO-BLT2 cells)", "assay": "LPA-induced chemotactic motility of CHO-BLT2 cells (Transwell)", "format": "cell-based", "conditions": "LPA 100 nM", "description": "Chemotactic motility was analyzed using a Transwell chamber including a polycarbonate filter (8-μm pore size, Corning Costar) with a 6.5-mm diameter. […] To evaluate the effect of inhibitors, the cells were pre-treated with each inhibitor for 30 minutes before dispensing. After the cells were cultured at 37° C. in 5% CO2 for 3 hours, the filters were fixed with methanol for 3 minutes, and stained with hematoxylin and eosin for 10 minutes. […] The chemotactic motility was quantitatively analyzed by counting the cells on the lower side of the filter under an optical microscope (magnification, 200×). For each analysis, 6 fields were subjected to counting, each sample was analyzed twice, and the analysis was repeated three times."}, "[4]": {"target": "T2, BLT2 (Homo sapiens, UniProt Q9NPC1)", "T2 sequence (Q9NPC1 with tags, fused parts or gaps)": "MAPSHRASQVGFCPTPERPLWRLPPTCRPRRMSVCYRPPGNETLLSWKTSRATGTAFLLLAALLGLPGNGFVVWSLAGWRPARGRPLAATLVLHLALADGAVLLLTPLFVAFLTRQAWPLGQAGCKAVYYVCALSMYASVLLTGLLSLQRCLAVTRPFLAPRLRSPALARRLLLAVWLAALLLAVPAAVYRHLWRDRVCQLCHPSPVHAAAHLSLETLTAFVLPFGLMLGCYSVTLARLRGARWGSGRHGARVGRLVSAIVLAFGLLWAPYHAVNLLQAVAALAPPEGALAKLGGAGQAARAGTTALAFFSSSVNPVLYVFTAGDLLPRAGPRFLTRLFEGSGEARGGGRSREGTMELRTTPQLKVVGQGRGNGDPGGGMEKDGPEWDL", "assay": "biochemical", "description": "(§3) In addition, in order to prepare stable CHO/BLT2 clones, CHO-K1 cells were transformed with pcDNA3-long form BLT2 encoding HA-tagged human BLT2, and selected with 0.4 mg/ml of G418 (Invitrogen, Carlsbad, Calif., USA)."}, "[5]": {"test_system": "ovarian cancer cells (SKOV-3 cells)", "assay": "Death of anticancer agent-resistant ovarian cancer cells on co-treatment with cisplatin (MTT)", "format": "cell-based", "conditions": "10 μM pre-treated 30 minutes, cisplatin 50 μM, 24 hours, LY255283 compared to cisplatin alone, AC compounds compared with LY255283 co-treatment", "description": "The death of cancer cells was detected using a 3-(4,5-dimethylthiazol-2-yl)-2,5-diphenyltetrazolium bromide (MTT) method. More specifically, 1×10^5 of the ovarian cancer cells (SKOV-3 cells) resistant to the anti-cancer agents were dispensed on a 12-well culture dish, and cultured for 24 hours. A 0.5% serum RPMI medium was pre-treated with each of the compound prepared in one of the examples (10 μM), 10 μM of DMSO (compound solvent) as a control, and 10 μM of LY255283 as a positive control for 30 minutes. Afterward, 50 μM of an anti-cancer agent, cisplatin, was treated, and then the cells were cultured 24 hours. A 20 μL of an MTT solution (5 mg/mL, Sigma-Aldrich) was added to each well, and the cells were cultured in a humid CO2 incubator at 37° C. for 4 hours. Afterward, the supernatant was removed, and 500 µL of DMSO was added to each well to dissolve insoluble violet formazan crystals. Absorbance was measured using a microplate reader (Molecular Devices, Sunnyvale, Calif.) at 550 nm, and the measurement was repeated three times."}, "[6]": {"test_system": "interleukin-4 (IL-4)", "assay": "IL-4 production in severely asthma-induced mice", "format": "in vivo", "conditions": "severely asthma-induced mice (FIG. 8), cells separated from the abdominal cavity, pre-treated (method 5 mg/kg intraperitoneally)", "description": "as §2, with “The administration of the airway constrictor was performed by spraying through an inlet of the chamber using an ultrasonic nebulizer for 3 minutes.” left out"}, "[7]": {"test_system": "BLT2-expressing cells (CHO-BLT2 cells)", "assay": "Inhibition of LTB4-induced growth of BLT2-expressing cells (MTT)", "format": "cell-based, human", "conditions": "LTB4 300 nM, 24 hours", "description": "Cell viability according to treatment of the compounds prepared in the examples were measured by a 3-(4,5-dimethylthiazol-2-yl)-2,5-diphenyltetrazolium bromide (MTT) method.\nMore specifically, 1×10^4 each of the BLT2-nonexpressing cells (CHO-pcDNA3.1 cells) and BLT2-expressing cells (CHO-BLT2 cells), which were prepared in Experimental Example 1, were dispensed in a […], and cultured for 24 hours. Afterward, the culture medium was removed, a serum-free RPMI medium was added, and after two hours, the cells were pre-treated with each of the compound prepared in one of the examples (10 μM), 10 μM DMSO (compound solvent) as a control, and 10 μM of 1-[5-ethyl-2-hydroxy-4-[[6-methyl-6-(1H-tetrazol-5-yl)heptyl]oxy]phenyl]-ethanone (LY255283; Cayman) as a positive control for 1 hour. Subsequently, after treatment of LTB4 (300 nM), the cells were cultured for 24 hours. 20 μL of an MTT solution (5 mg/mL, Sigma-Aldrich) was added to each well, the cells were cultured in a humid CO2 incubator at 37° C. for 4 hours, and then the supernatant was removed, and 200 μL of DMSO was added to each well to dissolve insoluble violet formazan crystals. Absorbance was measured using a microplate reader (Molecular Devices, Sunnyvale, Calif.) at 550 nm, and the measurement was repeated three times."}, "[8]": {"target": "T2, BLT2", "assay": "LTB4-induced BLT2-dependent chemotactic motility (Transwell)", "format": "cell-based", "parameters": "expressed in transfected cells", "conditions": "CHO-BLT2 cells, LTB4 300 nM", "description": "as §3, §1"}, "[9]": {"conditions": "severely asthma-induced mice (FIG. 7), airway constrictor 50 mg/ml, pre-treated (method 5 mg/kg intraperitoneally)"}},
  "data": [
    {"compound": "CCCCC(=O)N(Cc1ccc(-c2ccc(OCC(=O)O)cc2)cc1)c1cccc(F)c1", "note": "[AC-1074, 2-(4′-((N-(3-fluorophenyl)pentaneamido)methyl)biphenyl-4-yloxy)acetic acid]", "values": [
      {"measurement": "change in chemotactic motility compared with LTB4 (DMSO+)", "setting": "[1]; 10 μM pre-treatment", "result": "no change"},
      {"measurement": "AHR reduced", "setting": "[2]; asthma-induced mice (FIG. 6), airway constrictor methacholine 50 mg/ml, pre-treated (printed 10 μM; method 5 mg/kg intraperitoneally)", "result": 42, "unit": "%"},
      {"measurement": "AHR reduced", "setting": "[2]; [9]", "result": 59, "unit": "%"},
      {"measurement": "change in chemotactic motility compared with LPA (DMSO+)", "setting": "[3]; 10 μM pre-treatment", "result": "no change"},
      {"measurement": "IC50", "setting": "[4]", "result": 140, "unit": "nM"},
      {"measurement": "death of cancer cells on co-treatment with cisplatin", "setting": "[5]", "result": "highly increase"},
      {"measurement": "production of IL-4 reduced", "setting": "[6]", "result": 35.5, "unit": "%"}
    ]},
    {"compound": "lysophosphatidic acid [LPA, reference compound]", "values": [
      {"measurement": "chemotactic motility increase compared with ethanol (DMSO−)", "setting": "[3]", "result": 3.4, "unit": "times"}
    ]},
    {"compound": "CCCCC(=O)N(Cc1ccc(-c2ccc(OCC(=O)O)cc2)cc1)c1ccccc1", "note": "[AC-1073, 2-(4′-((N-phenylpentaneamido)methyl)biphenyl-4-yloxy)acetic acid]", "values": [
      {"measurement": "death of cancer cells on co-treatment with cisplatin", "setting": "[5]", "result": "highly increase"}
    ]},
    {"compound": "CCCCC(=O)N(Cc1ccc(-c2ccc(OC)cc2)cc1)c1cccc(F)c1", "note": "[AC-1646, N-(3-fluorophenyl)-N-((4′-methoxybiphenyl-4-yl)methyl) pentaneamide]", "values": [
      {"measurement": "growth inhibitory effect", "setting": "[7]; compound 10 μM pre-treated 1 hour", "result": 72.1, "unit": "%"}
    ]},
    {"compound": "CCCCC(=O)N(Cc1ccc(-c2ccc(O)cc2)cc1)c1cccc(F)c1", "note": "[AC-1070, N-(3-fluorophenyl)-N-((4′-hydroxybiphenyl-4-yl)methyl)pentaneamide]", "values": [
      {"measurement": "death of cancer cells on co-treatment with cisplatin", "setting": "[5]", "result": "highly increase"}
    ]},
    {"compound": "CCCCC/C=C\\C[C@@H](O)/C=C/C=C/C=C\\[C@@H](O)CCCC(=O)O", "note": "[LTB4, leukotriene B4, reference compound]", "values": [
      {"measurement": "chemotactic motility increase compared with ethanol (DMSO−)", "setting": "[1]", "result": 2.8, "unit": "times"},
      {"measurement": "chemotactic motility increase compared with ethanol (DMSO−)", "setting": "[8]", "result": 2.9, "unit": "times"}
    ]},
    {"compound": "CCc1cc(C(C)=O)c(O)cc1OCCCCCC(C)(C)c1nnn[nH]1", "note": "[LY255283, 1-[5-ethyl-2-hydroxy-4-[[6-methyl-6-(1H-tetrazol-5-yl)heptyl]oxy]phenyl]-ethanone, reference compound]", "values": [
      {"measurement": "cell growth compared with control DMSO", "setting": "[7]; pre-treated with 10 μM", "result": "approximately 90%"},
      {"measurement": "AHR reduced", "setting": "[2]; [9]", "result": 69.2, "unit": "%"},
      {"measurement": "chemotactic motility compared with those treated with the ligand LTB4", "setting": "[8]; 10 μM pre-treatment", "result": 90, "unit": "%"},
      {"measurement": "death of cancer cells on co-treatment with cisplatin", "setting": "[5]", "result": "increased"},
      {"measurement": "production of IL-4 reduced", "setting": "[6]", "result": 67.2, "unit": "%"}
    ]},
    {"compound": "CCCCC(=O)N(Cc1ccc(-c2ccc(C(=O)O)cc2)cc1)c1ccc(F)cc1", "note": "[AC-1072, 4′-((N-(4-fluorophenyl)pentaneamido)methyl)biphenyl-4-carboxylic acid]", "values": [
      {"measurement": "death of cancer cells on co-treatment with cisplatin", "setting": "[5]", "result": "highly increase"}
    ]}
  ]
}
